# Measurements reported in EPA's aquatic toxicity sets.
# Test system: Tetrahymena pyriformis
# Assay: 48 h IGC50 (-log10 mol/L); higher = more toxic
row,Compound,48 h IGC50 (-log10 mol/L)
1,CC(CN)c1ccccc1 (stereo unspecified),2.72
2,CC(C)CCCO,2.36
3,N#CCc1ccc([N+](=O)[O-])cc1,3.13
4,NCCCCO,2.02
5,CCOC(=O)C(Br)C(C)Br (stereo unspecified),4.44
6,CCC#CC(=O)OCC,3.82
7,CCOC(=O)C[C@H](C)O,1.47
8,Cc1cc(N)ncc1[N+](=O)[O-],3.37
9,CCCCCOc1ccc(N)cc1,3.97
10,CCCCNC,2.32
11,CCC(C)C(=O)OC (stereo unspecified),1.83
12,CCCCC(C)O (stereo unspecified),2.07
13,C=CC(C)O (stereo unspecified),1.95
14,O=C(O)c1ccccc1Cl,2.55
15,Cc1ccc2ccccc2c1[N+](=O)[O-],4.04
16,CCOC(=O)c1ccc(C#N)cc1,3.37
17,Cc1ccc(CN)cc1,2.99
18,C=CCOC(=O)CC#N,2.21
19,CCC(=O)c1ccco1,2.23
20,O=C(O)CCCC(=O)O,2.36
21,O=Cc1cc(O)c(O)c(O)c1,2.8
22,CCCCCOC=O,2.22

row,Compound,48 h IGC50 (-log10 mol/L)
1,CCCN=C=S,4.69
2,CCCCCC#CC=O,4.72
3,CCc1cccc2ccccc12,3.89
4,Oc1cccc(I)c1,4.12
5,CCOC(=O)CCC(C)=O,1.6
6,Cc1ccc2ccccc2n1,3.47
7,CCCCCCCCC=O,3.81
8,COc1ccc([N+](=O)[O-])cn1,2.99
9,CCC(C)(O)c1ccccc1 (stereo unspecified),3.06
10,CCC(=O)CC,1.54
11,O=[N+]([O-])c1cc(Cl)cc(Cl)c1[N+](=O)[O-],5.42
12,O=C(NO)c1ccccc1,3.38
13,CCCOC(=O)CCC,2.59
14,CCC(CC)COC(C)=O,2.88
15,CCCCCC(O)CC (stereo unspecified),2.94
16,O=[N+]([O-])c1ccccc1-c1ccccc1,4.3
17,O=C(O)CCCCCCC(=O)O,2.49
18,O=C(c1ccc(O)cc1O)c1ccc(O)cc1O,3.96
19,CC(Br)C(N)=O (stereo unspecified),3
20,CCCCCCCCCCO,4.33
21,CC#CCCO,1.82
22,CC(C)(C)OC(=O)CCl,3.85

row,Compound,48 h IGC50 (-log10 mol/L)
1,Cc1cc2ccccc2n1C,3.84
2,C/C=C/C(=O)OC,2.08
3,CC(C)CC(=O)OCCc1ccccc1,4.1
4,Cc1cc(N)ccc1O,4.31
5,CCCC(CCC)C(=O)O,3.03
6,CC(=O)OCCCCCBr,3.29
7,O=C(c1ccccc1)c1cccc(Cl)c1,4.55
8,CCCCCC1CCC(=O)O1 (stereo unspecified),3.01
9,CCCCCCN,2.78
10,O=Cc1ccc(O)c(O)c1,3.11
11,OCc1ccccc1O,2.05
12,C=CC(=O)NCNC(=O)C=C,2.48
13,Oc1ccc(-c2ccc(Br)cc2)cc1,5.31
14,CC(C)CCN,2.42
15,CCCCC(=O)C(C)=O,3.04
16,O=Cc1ccc(I)o1,3.33
17,OCc1cc(Br)ccc1O,3.34
18,COc1cc(C=O)cc(OC)c1O,3.17
19,COc1ccccc1Cl,3.22
20,CCc1ccccc1O,3.16
21,Fc1nc(F)c(F)c(Br)c1F,2.87
22,ClC(Cl)c1ccccc1,3.11
